{"source": "patent US11712474B2", "about": "“Reduction of post-surgery cancer metastasis by combination of cannabidiol and NR2F6 inhibition” (priority 2019, dated 2023)", "origin": "cited, not measured here", "key": {"[1]": {"test_system": "mitogen-activated human peripheral blood mononuclear cells (PBMC)"}, "[2]": {"conditions": "cells of CBD-treated mice vs untreated control mice"}}, "note": "Where two headings read alike, the source gives them in different places.", "data": [{"molecule": "C=C(C)[C@@H]1CCC(C)=C[C@H]1c1c(O)cc(CCCCC)cc1O", "note": "[CBD, cannabidiol]", "values": [{"measurement": "insulitis, histological examination of pancreatic islets", "setting": "NOD mice; CBD-treated NOD mice", "result": "significantly reduced"}, {"measurement": "plasma levels of pro-inflammatory cytokines IFN-gamma and TNF-alpha", "setting": "NOD mice; CBD-treated NOD mice", "result": "significant reduction"}, {"measurement": "incidence of diabetes", "setting": "NOD mice; CBD-treated NOD mice, 86% in non-treated control mice", "result": 30, "unit": "%"}, {"measurement": "Th1-associated cytokine production of in vitro activated T-cells and peritoneal macrophages", "setting": "NOD mice; [2]", "result": "significantly reduced"}, {"measurement": "production of Th2-associated cytokines IL-4 and IL-10", "setting": "NOD mice; [2]", "result": "increased"}, {"measurement": "IL-2 secretion", "setting": "[1]", "result": "no effect"}, {"measurement": "increase of the concentration of measurable IFN", "setting": "[1]", "result": 68, "unit": "%"}, {"measurement": "measurable quantity of IL-1", "setting": "[1]", "result": "decrease"}, {"measurement": "measurable quantity of TNF", "setting": "[1]", "result": "decrease"}, {"measurement": "synthesis and/or release of IFN", "setting": "[1]; high concentrations, 5-20 micrograms/ml", "result": "completely blocked"}]}, {"molecule": "CCCCCc1cc(O)c2c(c1)OC(C)(C)[C@@H]1CCC(C)=C[C@@H]21", "note": "[THC, delta-9-tetrahydrocannabinol]", "values": [{"measurement": "IL-2 secretion", "setting": "[1]", "result": "no effect"}, {"measurement": "increase of the concentration of measurable IFN", "setting": "[1]", "result": 139, "unit": "%"}, {"measurement": "synthesis and/or release of IFN", "setting": "[1]", "result": "completely blocked"}]}]}
